Reference: the NIST ThermoML archive (doi:10.1021/je030130y)

Experiments:
[1] = 101.3 kPa, Liquid; for viscosity: Capillary tube (Ostwald / Ubbelohde) method; for mass density: Pycnometric method
[2] = xn = mol fraction of the nth substance listed; details: 101.3 kPa, Liquid; for viscosity: Capillary tube (Ostwald / Ubbelohde) method; for mass density: Pycnometric method

c1ccccc1 [benzene]
[1]
Details | mass density [kg/m3] | viscosity [mPa·s]
298.15 K | 873.4 | 0.603
303.15 K | 868.2 | 0.568
308.15 K | 862.9 | 0.531
313.15 K | 857.4 | 0.5

c1ccccc1 [benzene] + CN(C)C=O
[2], x2 = 0
Details | mass density [kg/m3] | viscosity [mPa·s]
298.15 K | 873.4 | 0.603
303.15 K | 868.2 | 0.568
308.15 K | 862.9 | 0.531
313.15 K | 857.4 | 0.5

c1ccccc1 [benzene] + Clc1ccccc1
[2], x1 = 1
Details | mass density [kg/m3] | viscosity [mPa·s]
298.15 K | 873.4 | 0.603
303.15 K | 868.2 | 0.568
308.15 K | 862.9 | 0.531
313.15 K | 857.4 | 0.5

Clc1ccccc1 [chlorobenzene]
[1]
Details | mass density [kg/m3] | viscosity [mPa·s]
298.15 K | 1100.9 | 0.756
303.15 K | 1095.8 | 0.714
308.15 K | 1090.8 | 0.673
313.15 K | 1085.1 | 0.635

CN(C)C=O [dimethylformamide]
[1]
Details | mass density [kg/m3] | viscosity [mPa·s]
298.15 K | 944.5 | 0.803
303.15 K | 939.8 | 0.756
308.15 K | 935.1 | 0.71
313.15 K | 930.2 | 0.673

CN(C)C=O [dimethylformamide] + Clc1ccccc1
[2], x1 = 1
Details | mass density [kg/m3] | viscosity [mPa·s]
298.15 K | 944.5 | 0.803
303.15 K | 939.8 | 0.756
308.15 K | 935.1 | 0.71
313.15 K | 930.2 | 0.673
